Data on nine compounds can be found in US20050101595A1, “N-containing cycloalkyl-substituted amino-thiazole derivatives and pharmaceutical compositions for inhibiting cell proliferation and methods for their use” (PFIZER INC., priority 2003, published 2005).

Counter-ions that a name gives are not always drawn. Like-named read-outs stand apart in the source and are kept apart here. Some results are limits rather than exact numbers.

Assay [1] has as its target CDK2/Cyclin A (Homo sapiens, UniProt P24941). Nature of the assay: Inhibition of CDK2/Cyclin A Retinoblastoma Kinase Activity. It counts as biochemical. Particulars: apparent Ki, CDK2/proteolyzed cyclin A, Rb fragment substrate, 25 μM ATP. Summed up:
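Baculovirus-expressed CDK2 complexed with proteolyzed cyclin A (10 or 19 nM), Rb fragment substrate, 25 μM [32P/33P]ATP, HEPES pH 7.4, 30 °C for 60 or 75 min under initial-rate conditions. Filter capture and phosphorimager readout; apparent Ki fitted to competitive or tight-binding competitive inhibition.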

The target in assay [2] is human CDK4 and genetically truncated (1-264) cyclin D3 (Homo sapiens, UniProt P11802). Nature of the assay: Inhibition of CDK4/Cyclin D Retinoblastoma Kinase Activity. Conditions: apparent Ki, CDK4/truncated cyclin D3, Rb fragment substrate, 25 μM ATP. It counts as biochemical. Summed up: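 Human CDK4/truncated cyclin D3 (1-264) complex from baculovirus-infected insect cells, 5 nM, phosphorylating Rb fragment (residues 386-928, His-tagged) with 25 μM [32/33P]ATP in HEPES pH 7.4, MgCl2, 2% DMSO at 30° C. for 20 min (60 min for tight binders). Filter-captured radioactivity by phosphorimager; apparent Ki from competitive or tight-binding fits.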

Assay [3] concerns HCT-116 cell line. Kind of assay: Inhibition of cell growth, tetrazolium salt (MTT) assay. Conditions: Homo sapiens, HCT-116, 120 h, MTT, three to five days, read-out: HCT-116 IC50. The format is cell-based. Summed up: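 Growth inhibition is scored relative to cells receiving only 0.5% (v/v) DMSO. Plated cells rest 4 h, then take compound for three to five days at 37° C; MTT reduction to formazan is read at 540 nm.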

Sequence of human CDK4 and genetically truncated (1-264) cyclin D3 (P11802 whole entry, the tested form may be a part): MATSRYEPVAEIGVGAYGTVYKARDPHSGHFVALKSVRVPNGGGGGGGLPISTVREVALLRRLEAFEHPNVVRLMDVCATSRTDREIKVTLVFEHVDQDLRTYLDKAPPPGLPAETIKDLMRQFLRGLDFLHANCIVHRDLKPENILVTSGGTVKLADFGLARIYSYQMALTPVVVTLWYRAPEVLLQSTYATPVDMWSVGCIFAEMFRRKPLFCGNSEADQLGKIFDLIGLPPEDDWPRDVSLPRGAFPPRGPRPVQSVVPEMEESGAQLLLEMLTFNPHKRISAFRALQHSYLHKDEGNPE
Sequence of human CDK4 and genetically truncated (1-264) cyclin D3 (P30281 1-264 partner): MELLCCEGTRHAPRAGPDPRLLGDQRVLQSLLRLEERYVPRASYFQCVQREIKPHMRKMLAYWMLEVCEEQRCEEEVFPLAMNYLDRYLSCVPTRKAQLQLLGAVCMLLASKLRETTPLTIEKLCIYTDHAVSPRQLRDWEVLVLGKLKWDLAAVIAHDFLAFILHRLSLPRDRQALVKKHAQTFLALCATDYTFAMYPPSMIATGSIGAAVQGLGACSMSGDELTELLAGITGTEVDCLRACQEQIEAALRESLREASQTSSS

For orientation: IC50 means the point on the concentration scale where inhibition reaches its midpoint. `Nc1nc(NC2CCN(S(=O)(=O)CCc3ccncc3)CC2)sc1C(=O)c1c(F)cccc1F` [Example F27, 1-{4-Amino-2-[1-(2-pyridin-4-yl-ethanesulfonyl)-piperidin-4-ylamino]-thiazol-5-yl}-1-(2,6-difluoro-phenyl)-methanone]: the Ki in assay [1] is 32 nM; in assay [2], 6.8 nM. Moreover, the IC50 in assay [3] (first HCT-116 column (c4)) amounted to 1000 nM; in assay [3] (second HCT-116 column (c5)), 5000 nM.

Regarding `Nc1nc(NC2CCN(S(=O)(=O)CCc3ccccn3)CC2)sc1C(=O)c1c(F)cccc1F` [Example F28, 1-{4-Amino-2-[1-(2-pyridin-2-yl-ethanesulfonyl)-piperidin-4-ylamino]-thiazol-5-yl}-1-(2,6-difluoro-phenyl)-methanone], the results for the Ki in assay [1] and in assay [2] were 3.6 nM and 8.1 nM, respectively. Also, the IC50 in assay [3] (first HCT-116 column (c4)) came out at 650 nM; in assay [3] (second HCT-116 column (c5)), 1300 nM.

Consider `Nc1nc(NC2CCN(S(=O)(=O)c3ccc(-c4c[nH]cn4)cc3)CC2)sc1C(=O)c1c(F)cccc1F` [Example F30, 1-(4-Amino-2-{1-[4-(1H-imidazol-4-y)-benzenesulfonyl]-piperidin-4-ylamino}-thiazol-5-yl)-1-(2,6-difluoro-phenyl)-methanone Trifluoroacetic Acid Salt], for which the Ki in assay [1] was determined as 0.25 nM; in assay [2] it was 0.32 nM. Also, the IC50 is 170 nM in assay [3] (first HCT-116 column (c4)) and 1700 nM in assay [3] (second HCT-116 column (c5)).

In the case of `Cn1cnc(-c2ccc(S(=O)(=O)N3CCC(Nc4nc(N)c(C(=O)c5c(F)cccc5F)s4)CC3)cc2)c1` [Example F31, 1-(4-Amino-2-{1-[4-(1-methyl-1H-imidazol-4-yl)-benzenesulfonyl]-piperidin-4-ylamino}-thiazol-5-yl)-1-(2,6-difluoro-phenyl)-methanone Trifluoroacetic Acid Salt], the Ki in assay [1] is under 1 nM; in assay [2] it was 0.55 nM. Besides, the IC50 in assay [3] (first HCT-116 column (c4)) is 80 nM; in assay [3] (second HCT-116 column (c5)), 300 nM.

As to `Cn1cncc1-c1ccc(S(=O)(=O)N2CCC(Nc3nc(N)c(C(=O)c4c(F)cccc4F)s3)CC2)cc1` [Example F32, 1-(4-Amino-2-{1-[4-(3-methyl-3H-imidazol-4-yl)-benzenesulfonyl]-piperidin-4-ylamino}-thiazol-5-yl)-1-(2,6-difluoro-phenyl)-methanone Trifluoroacetic Acid Salt], the Ki was 0.4 nM in assay [1] and 0.9 nM in assay [2]. Moreover, the IC50 in assay [3] (first HCT-116 column (c4)) was 110 nM; in assay [3] (second HCT-116 column (c5)), 380 nM.

In the case of `Cc1ncc(-c2ccc(S(=O)(=O)N3CCC(Nc4nc(N)c(C(=O)c5c(F)cccc5F)s4)CC3)cc2)[nH]1` [Example F33, 1-(4-Amino-2-{1-[4-(2-methyl-1H-imidazol-4-yl)-benzenesulfonyl]-piperidin-4-ylamino}-thiazol-5-yl)-1-(2,6-difluoro-phenyl)-methanone Dihydrochloride], the Ki in assay [1] and in assay [2] was 0.28 nM each time. Also, the IC50 in assay [3] (first HCT-116 column (c4)) amounted to 160 nM; in assay [3] (second HCT-116 column (c5)), 1600 nM.

On to `Nc1nc(NC2CCN(S(=O)(=O)c3ccc(-c4ncc[nH]4)cc3)CC2)sc1C(=O)c1c(F)cccc1F` [Example F34], for which the Ki is under 1 nM in assay [1] and 0.51 nM in assay [2]. Moreover, the IC50 in assay [3] (first HCT-116 column (c4)) was determined as 1500 nM; in assay [3] (second HCT-116 column (c5)), 2600 nM.

Take `N#Cc1ccc(S(=O)(=O)N2CCCC(Nc3nc(N)c(C(=O)c4c(F)cccc4F)s3)C2)cc1` (stereo not drawn) [Example F35, 4-{3-[4-Amino-5-(2,6-difluoro-benzoyl)-thiazol-2-ylamino]-piperidine-1-sulfonyl}-benzonitrile]: the Ki in assay [1] turned out to be 76 nM; in assay [2] it was 340 nM. The IC50 is 1600 nM in assay [3] (first HCT-116 column (c4)) and 2600 nM in assay [3] (second HCT-116 column (c5)).

As for `CC(=O)Nc1ccc(S(=O)(=O)N2CCCC(Nc3nc(N)c(C(=O)c4c(F)cccc4F)s3)C2)cc1` (stereo not drawn) [Example F36, N-(4-{3-[4-Amino-5-(2,6-difluoro-benzoyl)-thiazol-2-ylamino]-piperidine-1-sulfonyl}-phenyl)-acetamide], the Ki in assay [1] was 480 nM; in assay [2], 780 nM. Also, the IC50 in assay [3] (first HCT-116 column (c4)) and in assay [3] (second HCT-116 column (c5)) was over 5000 nM each time.
